Assay results taken from the METLIN SMRT retention time set (Domingo-Almenara et al. 2019).

Experiment: gradient 5% acetonitrile 3 min, to 50% in 2 min, to 85% in 15 min, held 3 min, 100 µL/min
Details: column: Zorbax Extend-C18 2.1 x 50 mm; eluents: water / acetonitrile, 0.1% formic acid
Method in brief: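 Retention times of pure standards were taken from adduct peaks that were selected by computer and manually inspected. Over 3 months, mixtures of ~100 molecules were run by HPLC–quadrupole time-of-flight mass spectrometry in positive and negative ionization mode. The Zorbax Extend-C18 column (2.1 × 50 mm, 1.8 μm) ran at 100 μL/min in water and acetonitrile, each containing 0.1% formic acid, with 40 μL dead volume and 900 μL dwell volume.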

An RP-LC retention time of 718 s was found for COc1cc(NC(=O)CN2C(=O)COc3ccc(C(=O)N4CCCC4)cc32)cc(OC)c1 in this work.

An RP-LC retention time of 1300 s was found for CCOc1ccccc1NC(=O)C1CCCN(c2nc3c(s2)c(C)nn3-c2ccccc2)C1 (stereo not drawn) in this work.

An RP-LC retention time of 804 s was found for Cc1ccn(C(=O)c2ccc(NC(=O)CC(C)C)cc2)n1 in this work.

An RP-LC retention time of 839 s was found for Cc1ccc(NC(=O)C2CC(=O)N(c3n[nH]c4cc(Br)ccc34)C2)cc1 (stereo not drawn) in this work.

An RP-LC retention time of 1080 s was found for O=c1c2sccc2n(Cc2nc(-c3cccc(Br)c3)no2)c(=O)n1-c1cccc(F)c1 in this work.

An RP-LC retention time of 1130 s was found for Cc1nn(-c2nc(-c3ccccc3)cs2)c(C)c1CC(=O)Nc1ccc(F)cc1 in this work.

An RP-LC retention time of 763 s was found for Cc1cc(C)cc(NS(=O)(=O)c2cn(CC(C)C)c3ncccc23)c1 in this work.

An RP-LC retention time of 914 s was found for CCOc1cc(=O)n2c(c1C(=O)OCc1ccccc1F)CCCCC2 in this work.

An RP-LC retention time of 649 s was found for CC1(C)C(=O)NCCN1C(=O)c1cccc(Br)c1 in this work.

An RP-LC retention time of 720 s was found for Cc1c(Cl)cccc1NC(=O)NCC1CCOCC1 in this work.

An RP-LC retention time of 757 s was found for Cc1cccn2c(=O)c3cc(C(=O)NCCc4ccc(S(N)(=O)=O)cc4)n(C)c3nc12 in this work.

An RP-LC retention time of 556 s was found for Cc1ccc2c(C(=O)N3CCN(C4CCCCC4)CC3)cc(NC(=O)C3CCC3)cc2n1 in this work.

An RP-LC retention time of 631 s was found for CC(=O)/C=C1\SC(CC(=O)O)C(=O)N1c1ccccc1 (stereo not drawn) in this work.

An RP-LC retention time of 585 s was found for COCCNC(=O)c1nc2cccnc2n(C)c1=O in this work.

An RP-LC retention time of 734 s was found for COc1ncccc1C(=O)NCCCn1nc(-c2ccc(F)cc2)ccc1=O in this work.

An RP-LC retention time of 610 s was found for CCOc1cc(N2CCN(C(=O)c3cc(Cl)ccc3OC)CC2)nc(C)n1 in this work.

An RP-LC retention time of 617 s was found for NC(=O)CCCCn1ccc(NC(N)=NCC(F)(F)F)n1 in this work.

An RP-LC retention time of 703 s was found for Cc1ccc(NC(=O)Cn2cnc3nc(N4CCC(C(=O)NC5CC5)CC4)sc3c2=O)cc1F in this work.

An RP-LC retention time of 682 s was found for COc1ccc(S(=O)(=O)Nc2cc(-c3cn4ccccc4n3)ccc2C)cc1C in this work.

An RP-LC retention time of 1370 s was found for CCCc1ccc(S(=O)(=O)N2CCC(c3noc(-c4ccc(C)cc4)n3)CC2)cc1 in this work.

An RP-LC retention time of 992 s was found for CCn1cc(-c2nc(C(=O)NCc3ccc(F)cc3F)cs2)c2cccnc21 in this work.

An RP-LC retention time of 928 s was found for Cc1ccc(NS(=O)(=O)c2ccc(-c3c(C)noc3C)cc2)cc1 in this work.

An RP-LC retention time of 702 s was found for CC(C)n1cnc(S(=O)(=O)N2CCCC(C(=O)NCc3ccccc3)C2)c1 (stereo not drawn) in this work.

An RP-LC retention time of 767 s was found for Cc1ccccc1CNC(=O)c1cc2n(n1)CC(C)(C(=O)NC1CCCC1)N(C)C2=O (stereo not drawn) in this work.

An RP-LC retention time of 969 s was found for Cc1cc(C)c(NC(=O)Cn2cc3c(n2)CCCC3)c(C)c1 in this work.

An RP-LC retention time of 711 s was found for CC1CCN(C(=O)c2nc3ccccn3c2-c2ccsc2)CC1 in this work.

An RP-LC retention time of 911 s was found for COc1ccccc1CNC(=O)c1nnc(-c2ccc(S(=O)(=O)N3CCCCC3)cc2)o1 in this work.

An RP-LC retention time of 599 s was found for CCN(CCN(C)C)C(=O)c1cc2c(s1)N(CC)CCCC2 in this work.

An RP-LC retention time of 652 s was found for Cc1cc(-c2ncc(CC(=O)Nc3ccc(-c4cnccn4)cn3)cc2C)ccn1 in this work.

An RP-LC retention time of 613 s was found for COc1ccc(C2(C(=O)N3CC(N(Cc4ccncc4)S(C)(=O)=O)C3)CC2)cc1 in this work.

An RP-LC retention time of 706 s was found for NC(=O)c1ccccc1NC(=O)C1CN(c2nc3c(F)cccc3s2)C1 in this work.

An RP-LC retention time of 741 s was found for CC(=O)c1ccc2c(c1)N(CCCN(C)C)c1ccccc1S2 in this work.

An RP-LC retention time of 647 s was found for CCCNC(=O)C(=O)NCC(c1ccc2c(c1)CCCN2C)N1CCCC1 (stereo not drawn) in this work.

An RP-LC retention time of 1100 s was found for O=C(Cc1ccc(Br)cc1)Nc1nc(-c2ccccc2)cs1 in this work.

An RP-LC retention time of 1000 s was found for COc1ccccc1NC(=O)N1CCCC1c1nc(-c2ccc(F)cc2F)no1 (stereo not drawn) in this work.

An RP-LC retention time of 961 s was found for CCCN(CCC)c1nc(-c2ccc(Cl)cc2)nc2ccccc12 in this work.

An RP-LC retention time of 697 s was found for CCC(=O)Nc1ccc(-n2cnc(C(=O)NCc3ccccc3)c2)nc1 in this work.

An RP-LC retention time of 1010 s was found for COc1cc(C(=O)Nc2sc3c(c2C(N)=O)CCC(C)C3)cc(OC)c1OC (stereo not drawn) in this work.
